PMC9897788, “Design, synthesis and cytotoxic evaluation of novel bis-thiazole derivatives as preferential Pim1 kinase inhibitors with in vivo and in silico study” (Journal of Enzyme Inhibition and Medicinal Chemistry, 2023)
pIC50: −log10 of the molar value. Entries after “also recorded” stand apart in the source; their conditions may differ.

Key:
[1] = tested on: Breast MCF10A normal cell line; test: Normal cell line cytotoxicity using MCF10a (MTT); type: cell-based, human; conditions: 48 h; for pIC50: Homo sapiens, MCF-10A; for Selectivity Index: MCF10A normal versus T47D cancer cells
Procedure: In vitro toxicology assay kit (MTT based) stock no. TOX-1 7H258 was purchased from SIGMA (St. Louis, MO). About 3 ml of the medium with the normal cell lines in log phase were added in multiwall plate without phenol red and serum. A volume of reconstituted MTT (#M-5655) equivalent to 10% of the culture medium volume was added then incubated for 2 h. The resulted fomazan crystals were dissolved with occasional shaking by equivalent volume of MTT solubilising solution (#M-8910). The final solution absorbance was measured spectrophotometry at wavelength 570 nm. Blank experiment was performed using medium only without cells.

Ehrlich solid carcinoma = test: In vivo cytotoxicity study, Ehrlich solid carcinoma model; set-up: species or system male Swiss albino mice; conditions: i.p. once weekly for 3 weeks; for Histopathological examination of Ehrlich solid tumour (H&E): mice; for TNF-α level (ELISA) / malondialdehyde (MDA) level (ELISA): serum, Ehrlich solid tumour mice
Procedure: The National Cancer Institute (Cairo, Egypt) provided the 48 male Swiss albino mice utilised in this study, which ranged in weight from 25 to 30 g. Prior to the experiment, mice were given a week to settle into their new environment. A constant 23 °C temperature, 60% humidity, and a 12/12 light/dark cycle were maintained in stainless steel cages. Each cage housed five mice with a plenty of nourishing food and refreshing water were served. This in vivo study was approved from the ethical committee of the Azhar University, Faculty of Medicine, Egypt.
A female mouse with an 8-day-old ascetic tumour was obtained from the National Cancer Institute on the day of induction, and Ehrlich ascites carcinoma (EAC) cells were isolated from the ascetic fluid of the animal (day 0). Then, regular saline was used to dilute the ascetic fluid (1:10). Each mouse received a subcutaneous injection of 0.2 ml of ascetic fluid containing 2.5 × 10^6 EAC cells in the right thigh of the hind limb to induce Ehrlich solid-phase cancer.
On day 11 following ESC inoculation, tumour formation was observed as a solid mass expanding in the right thigh of each animal. The mice were then randomly divided into four groups (n = 6) • Group (1) acted as the […] control group and mice received an i.p. DMSO (2 mg/kg/once weekly) for 3 weeks. • Group (2) (Doxorubicin Group) mice received an i.p. dose of doxorubicin (2 mg/kg/once weekly) for 3 weeks. • Group (3) mice were given an i.p. dose of 8b compound (1 mg/kg/once weekly) for 3 weeks, • Group (4) mice were given an i.p. dose of 3b compound (1.4 mg/kg/once weekly) for 3 weeks.
Two days after the last dose of therapy, blood was drawn from the mice’s orbital canthus, and serum was separated and stored at −80 °C for upcoming biochemical investigations. Following the cervical dislocation method of euthanasia, tumour samples from each mouse were collected and preserved in neutral buffered formalin at a 10% concentration for immunohistochemistry and histopathology studies. Histological preparations were performed according to the reported method. Slices of Ehrlich tumour were cut to a thickness of 3–4 mm before being fixed in 10% neutral buffered formalin (10% NBF), dehydrated through a series of ethanol solutions, cleaned in xylene, and finally embedded in paraffin. To examine the overall tissue architecture, sections ([…]) thick were cut from paraffin blocks using a microtome and stained with haematoxylin and eosin. We used a Leica microscope (CH9435 Hee56rbrugg) to look at H&E-stained tissue sections (Leica Microsystems, Switzerland).
The avidin–biotin–peroxidase complex (ABC) method was used to do immunohistochemistry on paraffin sections that were put on positively charged slides. Rabbit Anti-VEGF Receptor 2 Polyclonal Antibody (Elabscience Cat# E-AB-63481, Dil.: 1:100) and Rabbit Monoclonal anti-caspase-3 antibody, active (cleaved) form (Sigma Aldrich Catalog # AB3623)[41], were utilised during this IHC assessment. Each group’s sections were treated with the previously specified antibodies, after which the ABC technique reagents (Vectastain ABC-HRP kit, Vector labs) were applied. To locate the antigen–antibody combination, marker expression was stained with diaminobenzidine (DAB, manufactured by Sigma) and labelled with peroxidase. In order to conduct negative controls, non-immune serum was substituted for the primary or secondary antibodies. IHC-stained sections were assessed using a Leica (CH9435 Hee56sbrugg) microscope (Leica Microsystems, Switzerland).
Using one-way analysis of variance (ANOVA) followed by Tukey’s post-hoc test, the difference between experimental groups was analysed. All data are presented as mean ± standard deviation (SD). All comparisons were judged statistically significant when the p values ≤ 0.05. ImageJ (NIH Image J system, Bethesda, MD) was used for the analysis of immunohistochemistry photos.

[2] = Calculation of the lethal dose 50 (LD50), fixed-dose approach; conditions: male, Swiss albino, mouse, in vivo, ip, mice, single dose
Procedure: The LD50 of compounds 3b and 8b were determined using a fixed-dose approach; 12 male Swiss albino mice were divided into four groups (three mice per group) to calculate the LD50. […]. By giving these concentrations once to the animals and monitoring the signs of poisoning and deaths within 24 h, the lethal dose was identified. The animals were monitored continuously for the first two hours and then every four hours after that. After 24 h, all of animal deaths and survival appeared. […]. […] The dose used in the experiment was 1/10 from the LD50.

Pim1 kinase = molecular target: T1, Pim1 kinase (Homo sapiens, UniProt P11309); test: In vitro Pim1 kinase inhibition assay (ADP-Glo); type: biochemical; conditions: n = 3
T1 construct: purchased Promega Corporation, Madison, WI
T1 sequence (P11309 whole entry): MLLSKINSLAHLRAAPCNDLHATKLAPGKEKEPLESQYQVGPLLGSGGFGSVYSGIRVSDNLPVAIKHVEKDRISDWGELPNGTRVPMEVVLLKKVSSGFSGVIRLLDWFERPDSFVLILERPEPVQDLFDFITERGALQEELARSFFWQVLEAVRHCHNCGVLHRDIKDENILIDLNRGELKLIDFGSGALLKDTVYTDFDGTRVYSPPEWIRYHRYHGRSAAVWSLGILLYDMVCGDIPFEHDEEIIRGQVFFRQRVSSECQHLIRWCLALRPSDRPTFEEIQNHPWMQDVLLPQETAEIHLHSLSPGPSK
Procedure: ADP-Glo^TM kinase assay kit was used to evaluate Pim1 kinase inhibition purchased from Promega Corporation, Madison, WI. At each of the kit low-volume well, the tested compounds were dissolved in DMSO at each of the tested concentration range and 1 µL was withdrawn and mixed with 2 µL Pim1 kinase and 2 µL of substrate/ATP mix then incubated at room temperature for 60 min. 5 µL of ADP-Glo reagent was added and incubated for another 40 min at room temperature. Finally 10 µL of kinase detection reagents was added and incubated for 30 min and the luminescence was recorded. Pim1 kinase buffer was prepared by mixing 40 mM Tris at pH 7.5, 20 mM MgCl2, 0.1 mg/mL BSA and 50 µM DTT.

[3] = tested on: breast cancer T47D cell line; test: Breast T47D cancer cell cycle flowcytometry; type: cell-based
Procedure: After treatment with test compounds for 48 h and paclitaxel (1 µM) for 48 h as positive control, cells (10^5 cells) are collected by trypsinization and washed twice with ice-cold PBS (pH 7.4). Cells are re-suspended in two millilitres of 60% ice-cold ethanol and incubated at 4 °C for 1 h for fixation. Fixed cells are washed twice again with PBS (pH 7.4) and re-suspended in 1 ml of PBS containing 50 µg/mL RNAase A and 10 µg/mL propidium iodide (PI). After 20 min of incubation in dark at 37 °C, cells are analysed for DNA contents using flow cytometry analysis using FL2 (λex/em 535/617 nm) signal detector (ACEA Novocyte™ flowcytometer, ACEA Biosciences Inc., San Diego, CA). For each sample, 12,000 events are acquired. Cell cycle distribution is calculated using ACEA NovoExpress™ software (ACEA Biosciences Inc., San Diego, CA)[36].

[4] = Ehrlich solid tumour tissue, 8b 1 mg/kg, 3b 1.4 mg/kg, doxorubicin 2 mg/kg
[5] = 8b 1 mg/kg, 3b 1.4 mg/kg, doxorubicin 2 mg/kg

Row | Structure (SMILES) | pIC50 [1] | Selectivity Index [1] | VEGF expression by immunohistochemistry (Ehrlich solid carcinoma; [4]) | Histopathological examination of Ehrlich solid tumour (H&E) (Ehrlich solid carcinoma; [5]) | TNF-α level (ELISA) (Ehrlich solid carcinoma) | malondialdehyde (MDA) level (ELISA) (Ehrlich solid carcinoma) | LD50 at 24 h [2] | pIC50 (Pim1 kinase) | Percentage of breast T47D cells, G0/G1 Phase ([3]; 48 h incubation) | Percentage of breast T47D cells, Pre G1 Phase ([3]; 48 h incubation) | Percentage of breast T47D cells, S Phase ([3]; 48 h incubation) | G2 phase cells lower than the control by ([3]; relative to untreated control) | pre-G1 phase cells higher than the untreated control by ([3]; relative to untreated control) | caspase-3 expression by immunohistochemistry (Ehrlich solid carcinoma; [4]) | Percentage of breast T47D cells, G2 Phase ([3]; 48 h incubation) | S phase cells higher than the control by ([3]; relative to untreated control)
1 | CC(=O)c1sc(Nc2cccc(Nc3nc(C)c(C(C)=O)s3)c2)nc1C [3b, 1,1’-(2,2’-(1,3-Phenylenebis(azanediyl))bis(4-methylthiazole-5,2-diyl))diethanone] | 3.98 | 18.25 | moderate to low expression of VEGF; also recorded: moderate VEGF positivity; also recorded: down-regulation of VEGF | substantial number of aggregated neoplastic cells with their typical structure were surrounded by small patches of necrotic muscle tissue; also recorded: aggregates of neoplastic cells with their typical structure that surrounded by small patches of necrotic muscle tissue | no statistical difference was detected between compounds 8b and 3b; also recorded: down-regulation of VEGF and TNF α | did not significantly vary from the untreated control group | 14 mg/kg | 6.49 | 66.5% | 2.6% | 18.7% | 58% | 78% | – | – | –
2 | c1ccc(-c2csc(Nc3cccc(Nc4nc(-c5ccccc5)cs4)c3)n2)cc1 [6a, N^1,N^3-bis(4-phenylthiazol-2-yl)benzene-1,3-diamine] | – | – | – | – | – | – | – | 5.69 | – | – | – | – | – | – | – | –
3 | Fc1ccc(-c2csc(Nc3cccc(Nc4nc(-c5ccc(F)cc5)cs4)c3)n2)cc1 [6b, N^1,N^3-bis(4–(4-fluorophenyl)thiazol-2-yl)benzene-1,3-diamine] | – | – | – | – | – | – | – | 5.53 | – | – | – | – | – | – | – | –
4 | Fc1ccc(-c2cs/c(=N\c3ccccc3)n2-c2cccc(-n3c(-c4ccc(F)cc4)cs/c3=N\c3ccccc3)c2)cc1 [8b, N,N’-(3,3’-(1,3-phenylene)bis(4–(4-fluorophenyl)thiazole-3(3H)-yl-2(3H)-ylidene))dianiline] | 4.27 | 5.44 | low expression of VEGF; also recorded: no appreciable VEGF immunoreactivity; also recorded: down-regulation of VEGF | minimal infiltration of neoplastic cells and a significant reduction in their quantity; also recorded: inhibited the growth of Ehrlich solid tumours in mice | no statistical significant difference between DOX and 8b; also recorded: down-regulation of VEGF and TNF α | elevation of malondialdehyde levels | 10 mg/kg | 6.62 | 51.7% | 1.9% | 26.5% | – | – | highest significant increment in caspase-3 expression; also recorded: significant positive expression of caspase-3; also recorded: up-regulation of caspase-3 | 25.9% | 77.8%
